Assay results as given in ChEMBL document CHEMBL1201862, “PubChem BioAssay data set” (2004).
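Cultured in 96-well plates, cells were exposed to test compound for 48 hours across five concentrations. Abbreviation: GI50, concentration required for 50% inhibition of growth.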 Calls of active or inactive are those of the source. No stated cut-off is given here; in the data, active = GI50 up to about 1.1 µM and inactive = higher.

Key:
Assay in all cases: DTP human tumour cell line panel, 48 h
ACHN = system: ACHN
BT-549 = system: BT-549
CCRF-CEM = system: CCRF-CEM
DU-145 = system: DU-145
HCC 2998 = system: HCC 2998
HCT-116 = system: HCT-116
Hs-578T = system: Hs-578T
M14 = system: M14
MDA-MB-231 = system: MDA-MB-231
MDA-N = system: MDA-N
NCI-H460 = system: NCI-H460
OVCAR-3 = system: OVCAR-3
OVCAR-4 = system: OVCAR-4
OVCAR-8 = system: OVCAR-8
RXF 393 = system: RXF 393
SK-OV-3 = system: SK-OV-3
SR = system: SR
TK-10 = system: TK-10
NCI-H522 = system: NCI-H522

| SMILES | GI50 (ACHN) | GI50 (BT-549) | GI50 (CCRF-CEM) | GI50 (DU-145) | GI50 (HCC 2998) | GI50 (HCT-116) | GI50 (Hs-578T) | GI50 (M14) | GI50 (MDA-MB-231) | GI50 (MDA-N) | GI50 (NCI-H460) | GI50 (OVCAR-3) | GI50 (OVCAR-4) | GI50 (OVCAR-8) | GI50 (RXF 393) | GI50 (SK-OV-3) | GI50 (SR) | GI50 (TK-10) | GI50 (NCI-H522) |
| --- | --- | --- | --- | --- | --- | --- | --- | --- | --- | --- | --- | --- | --- | --- | --- | --- | --- | --- | --- |
| OC1(c2ccc(Cl)cc2)c2c(c3ccccc3c3ccccc23)C2=NCCN21 (configuration not stated) | 14.5 µM (inactive) | 16.5 µM (inactive) | > 100 µM (inactive) | 17.4 µM (inactive) | 1.98 µM (inactive) | 10.9 µM (inactive) | 4.58 µM (inactive) | 11.4 µM (inactive) | 12 µM (inactive) | 19.8 µM (inactive) | 15.8 µM (inactive) | 23.8 µM (inactive) | 3.43 µM (inactive) | 11.9 µM (inactive) | 11.4 µM (inactive) | 16.4 µM (inactive) | 4.42 µM (inactive) | 4.98 µM (inactive) | – |
| Clc1ccc2oc(CCC3CCCCC3)nc2c1 | 40.6 µM (inactive) | 26.8 µM (inactive) | 18.5 µM (inactive) | 34.3 µM (inactive) | 22.9 µM (inactive) | 31.4 µM (inactive) | 91.2 µM (inactive) | 32 µM (inactive) | 28.3 µM (inactive) | 33.3 µM (inactive) | 24.9 µM (inactive) | 15.6 µM (inactive) | 27.4 µM (inactive) | 44.1 µM (inactive) | 15.1 µM (inactive) | 26.1 µM (inactive) | 19.7 µM (inactive) | 26.4 µM (inactive) | 21.9 µM (inactive) |
| Cn1c2c(c3ccccc31)CCN=C2C1CCCOC1=O (configuration not stated) | > 100 µM (inactive) | 47 µM (inactive) | – | > 100 µM (inactive) | > 100 µM (inactive) | > 100 µM (inactive) | 32.6 µM (inactive) | > 100 µM (inactive) | > 100 µM (inactive) | > 100 µM (inactive) | > 100 µM (inactive) | > 100 µM (inactive) | > 100 µM (inactive) | > 100 µM (inactive) | > 100 µM (inactive) | – | > 100 µM (inactive) | > 100 µM (inactive) | > 100 µM (inactive) |
| COc1ccc2[nH]c3c(C)c4cnccc4c(C)c3c2c1 | 2.01 µM (inactive) | 7.48 µM (inactive) | 2.07 µM (inactive) | 2.93 µM (inactive) | 1.67 µM (inactive) | 1.25 µM (inactive) | 5.55 µM (inactive) | 1.26 µM (inactive) | 2.8 µM (inactive) | 1.85 µM (inactive) | 1.78 µM (inactive) | 1.14 µM (inactive) | 1.94 µM (inactive) | 1.01 µM (active) | 2.49 µM (inactive) | > 10 µM (inactive) | 3.57 µM (inactive) | 5.69 µM (inactive) | 2.02 µM (inactive) |
| Cc1n[nH]c(=O)n1-c1cccnc1 | > 100 µM (inactive) | > 100 µM (inactive) | > 100 µM (inactive) | > 100 µM (inactive) | > 100 µM (inactive) | > 100 µM (inactive) | > 100 µM (inactive) | > 100 µM (inactive) | > 100 µM (inactive) | > 100 µM (inactive) | > 100 µM (inactive) | > 100 µM (inactive) | > 100 µM (inactive) | > 100 µM (inactive) | > 100 µM (inactive) | – | > 100 µM (inactive) | > 100 µM (inactive) | > 100 µM (inactive) |
| CC(=O)O[C@H]1CC[C@@]2(C)C(=CC[C@@H]3[C@@H]2CC[C@]2(C)Nc4c(cnn4S(C)(=O)=O)C[C@@H]32)C1 | – | 23.3 µM (inactive) | 37.2 µM (inactive) | 49.5 µM (inactive) | > 100 µM (inactive) | – | 62.4 µM (inactive) | 27.8 µM (inactive) | > 100 µM (inactive) | 60.1 µM (inactive) | 44.4 µM (inactive) | 48 µM (inactive) | – | > 100 µM (inactive) | 18.1 µM (inactive) | > 100 µM (inactive) | 40.4 µM (inactive) | – | 41.1 µM (inactive) |
| C[C@@H]1Nc2cc(NC(=O)OCCF)nc(N)c2N=C1c1ccccc1 | 24.8 µM (inactive) | 84.1 µM (inactive) | < 0.0001 µM (active) | < 0.0001 µM (active) | < 0.01 µM (active) | < 0.0001 µM (active) | < 0.0001 µM (active) | < 0.0001 µM (active) | < 0.0001 µM (active) | < 0.0001 µM (active) | < 0.0001 µM (active) | < 0.0001 µM (active) | – | < 0.0001 µM (active) | 29 µM (inactive) | – | < 0.0001 µM (active) | – | < 0.0001 µM (active) |
| COc1nc2ncc([C@@H](OC(C)=O)[C@@H](COC(C)=O)OC(C)=O)nc2c(=O)n1C | > 100 µM (inactive) | > 100 µM (inactive) | 58.1 µM (inactive) | > 100 µM (inactive) | – | > 100 µM (inactive) | > 100 µM (inactive) | > 100 µM (inactive) | > 100 µM (inactive) | > 100 µM (inactive) | > 100 µM (inactive) | > 100 µM (inactive) | 48 µM (inactive) | > 100 µM (inactive) | > 100 µM (inactive) | > 100 µM (inactive) | > 100 µM (inactive) | > 100 µM (inactive) | 57.5 µM (inactive) |
| CCCCn1cnnc1NS(=O)(=O)c1cc(C)c(Cl)cc1SCC(=O)O | > 10 µM (inactive) | > 10 µM (inactive) | > 10 µM (inactive) | > 10 µM (inactive) | > 10 µM (inactive) | > 10 µM (inactive) | > 10 µM (inactive) | > 10 µM (inactive) | > 10 µM (inactive) | > 10 µM (inactive) | > 10 µM (inactive) | > 10 µM (inactive) | > 10 µM (inactive) | > 10 µM (inactive) | > 10 µM (inactive) | > 10 µM (inactive) | – | > 10 µM (inactive) | > 10 µM (inactive) |
| COC(=O)C1c2c(c3ccccc3n2C(=O)OC)CCN2CCC1C(S(=O)(=O)c1ccccc1)C2=O (configuration not stated) | – | > 100 µM (inactive) | > 100 µM (inactive) | > 100 µM (inactive) | – | > 100 µM (inactive) | > 100 µM (inactive) | > 100 µM (inactive) | > 100 µM (inactive) | > 100 µM (inactive) | > 100 µM (inactive) | > 100 µM (inactive) | – | > 100 µM (inactive) | 89.1 µM (inactive) | > 100 µM (inactive) | 87.7 µM (inactive) | > 100 µM (inactive) | 89.3 µM (inactive) |
| COC(=O)/C=C1\SC2(O\C1=N/c1ccccc1)C1CC3CC(C1)CC2C3 (configuration not stated) | > 100 µM (inactive) | > 100 µM (inactive) | > 100 µM (inactive) | > 10 µM (inactive) | – | > 100 µM (inactive) | > 100 µM (inactive) | – | > 100 µM (inactive) | > 100 µM (inactive) | > 100 µM (inactive) | > 100 µM (inactive) | 36.1 µM (inactive) | > 100 µM (inactive) | > 100 µM (inactive) | > 100 µM (inactive) | > 100 µM (inactive) | > 100 µM (inactive) | > 100 µM (inactive) |
| CC[C@@]1(O)C(=O)OCc2c1cc1n(c2=O)Cc2c-1nc1ccccc1c2/C=N\NC(=O)C(N)Cc1c[nH]c2ccccc12 (some centres not stated) | < 0.0188 µM (active) | 6.25 µM (inactive) | < 0.01 µM (active) | 0.164 µM (active) | 2.3 µM (inactive) | 0.392 µM (active) | 27.9 µM (inactive) | 0.332 µM (active) | 33 µM (inactive) | 2.02 µM (inactive) | 0.104 µM (active) | 5.14 µM (inactive) | 3.08 µM (inactive) | 0.555 µM (active) | 0.145 µM (active) | 0.49 µM (active) | < 0.01 µM (active) | 20 µM (inactive) | 0.643 µM (active) |
| COC(=O)C(Cc1cn(C(C)n2cc(CC(NC(C)=O)C(=O)OC)c3ccccc32)c2ccccc12)NC(C)=O (configuration not stated) | – | > 100 µM (inactive) | 42.5 µM (inactive) | > 100 µM (inactive) | > 100 µM (inactive) | > 100 µM (inactive) | 12.5 µM (inactive) | > 100 µM (inactive) | 44.5 µM (inactive) | > 100 µM (inactive) | 63.2 µM (inactive) | > 100 µM (inactive) | > 100 µM (inactive) | – | – | > 100 µM (inactive) | 37.6 µM (inactive) | > 100 µM (inactive) | 12.2 µM (inactive) |
| CCCCc1ccc(Nc2nc(N)c3ncn(COCCO)c3n2)cc1 | 18 µM (inactive) | 25.5 µM (inactive) | 26.4 µM (inactive) | 37.7 µM (inactive) | 27.2 µM (inactive) | 26.9 µM (inactive) | 36.8 µM (inactive) | 20.6 µM (inactive) | 29 µM (inactive) | 37.2 µM (inactive) | – | 16.6 µM (inactive) | 32.2 µM (inactive) | 25.9 µM (inactive) | 30.1 µM (inactive) | 11.2 µM (inactive) | 18 µM (inactive) | 52.6 µM (inactive) | 26.1 µM (inactive) |
| CC[C@@]1(O)C(=O)OCc2c1cc1n(c2=O)Cc2c-1nc1ccccc1c2CC[Si](C)(C)C [COSITECAN] | < 0.01 µM (active) | 0.023 µM (active) | – | < 0.01 µM (active) | < 0.01 µM (active) | < 0.01 µM (active) | 7.73 µM (inactive) | < 0.01 µM (active) | 0.417 µM (active) | < 0.01 µM (active) | < 0.01 µM (active) | 0.0604 µM (active) | 0.0998 µM (active) | < 0.01 µM (active) | < 0.01 µM (active) | < 0.01 µM (active) | < 0.01 µM (active) | 0.131 µM (active) | < 0.01 µM (active) |
